Assay results: patent publication US20200011856A1, “Method for Determining the Effectiveness of Treatment for the Prevention of Heartworm Disease” (priority 2017, published 2020)
“And” between values parts separate entries of the source, which are not always exact repeats. Equal entries are not always repeated.

Columns and labels:
Dirofilaria immitis = assay: D. immitis L3 infection of NSG mice (FR3 Missouri strain or strain not stated), treatment, recovery and count of worms at necropsy; type: in vivo; conditions: for % Rec / Survival / % Rec (percent of the original 50 Di recovered) / Survival (number of Di recovered from the mouse): individual mouse; for % Rec (percent of the original 50 Di recovered) / Survival (number of Di recovered from the mouse): 1 mg/kg
[1] = test system: Dirofilaria immitis (Merial worms, UC strain); assay: D. immitis L3 infection of NSG mice with Merial worms / UC strain, treatment, recovery and count of worms; type: in vivo
[2] = test system: Strongyloides stercoralis; assay: Strongyloides stercoralis L3 infection of NSG mice with or without MPA, treatment, counts of adult worms, L1 and L3; conditions: 6 weeks post-injection; for Adult S. stercoralis recovery counts (individual mice) / Adult S. stercoralis recovery counts, mean / L1 S. stercoralis recovery counts (individual mice) / L1 S. stercoralis recovery counts, mean / L3 S. stercoralis recovery counts (individual mice) / L3 S. stercoralis recovery counts, mean: 5000 L3 s.c.
From the text: NSG mice infected by subcutaneous injection with 5000 S. stercoralis L3 larvae, either with or without MPA. […] Adult worms, L1 larvae, or L3 larvae were counted in the mice at 6 weeks post-injection.

[3] = NSG mice, 50 Di L3, 1x (1 mg/kg) at Day 30, recovery Days 41 to 43
[4] = NSG mice, 50 Di L3, 2x (1 mg/kg) at Days 1 and 30, recovery Days 41 to 43
[5] = NSG mice, 50 Di L3, 3x (1 mg/kg) at Days 1, 15, and 30, recovery Days 41 to 43
[6] = NSG mice, 50 Di L3 Day 0, 1 mg/kg EMO or 8800 on Days 30 and 60, recovery Days 83 and 84
[7] = NSG mice, 50 Di L3 Day 0, 1 mg/kg on Day 30, recovery Days 41 to 43
[8] = Table 9, NSG mice, 50 Di L3, 1 mg/kg on Days 1, 15, and 30, recovery Days 41 to 43
[9] = Table 9, group mean, NSG mice, 50 Di L3, 1 mg/kg on Days 1, 15, and 30, recovery Days 41 to 43
[10] = Table 11, NSG mice, 50 Di L3, 5 mg/kg on Days 1, 15, and 30, recovery Days 41 to 42
[11] = Table 11, group mean, NSG mice, 50 Di L3, 5 mg/kg on Days 1, 15, and 30, recovery Days 41 to 42
[12] = group mean, NSG mice, 50 Di L3, 1x (1 mg/kg) at Day 30, recovery Days 41 to 43
[13] = group mean, NSG mice, 50 Di L3 Day 0, 1 mg/kg EMO or 8800 on Days 30 and 60, recovery Days 83 and 84
[14] = group mean, NSG mice, 50 Di L3 Day 0, 1 mg/kg on Day 30, recovery Days 41 to 43
[15] = EMO 1 mg/kg Days 1, 15, 30, 50 Di L3 (UC Strain) per NSG mouse, recovery Days 41 to 43, group mean
[16] = EMO 1 mg/kg Days 1, 15, 30, 50 Di L3 (UC Strain) per NSG mouse, recovery Days 41 to 43, individual mice
[17] = group mean, NSG mice, 50 Di L3 Merial worms, 1 mg/kg on Days 1, 15, and 30, recovery Days 41 to 43
[18] = group mean, NSG mice, 50 Di L3 Merial worms, high dose 5 mg/kg on Days 1, 15, and 30, recovery Days 41 to 43
[19] = group mean, NSG mice, 50 Di L3 UC strain, High Dose 5 mg/kg on Days 1, 15, and 30, recovery Days 41 and 42
[20] = individual mouse, NSG mice, 50 Di L3 Merial worms, 1 mg/kg on Days 1, 15, and 30, recovery Days 41 to 43, 1 mg/kg
[21] = individual mouse, NSG mice, 50 Di L3 Merial worms, high dose 5 mg/kg on Days 1, 15, and 30, recovery Days 41 to 43, 5 mg/kg
[22] = individual mouse, NSG mice, 50 Di L3 UC strain, High Dose 5 mg/kg on Days 1, 15, and 30, recovery Days 41 and 42, 5 mg/kg
[23] = EMO Control: 2.5 mg/kg EMO days 1, 15, 30, without MPA
[24] = EMO/MPA: 2.5 mg/kg EMO days 1, 15, 30, with MPA (hyperinfection)

In the case of CC(C)C[C@H]1C(=O)O[C@H](Cc2ccc(N3CCOCC3)cc2)C(=O)N(C)[C@@H](CC(C)C)C(=O)O[C@H](C)C(=O)N(C)[C@@H](CC(C)C)C(=O)O[C@H](Cc2ccc(N3CCOCC3)cc2)C(=O)N(C)[C@@H](CC(C)C)C(=O)O[C@H](C)C(=O)N1C [EMO, emodepside], the “HW parasite load (normalized percent larva recovery, FIG. 2)” value (Dirofilaria immitis; NSG mice dosed orally with 1 mg/kg at Days 1, 15, and 30 post-infection, day 42/6 weeks) is reported as “significantly reduced HW parasite load”, the “% Red” value (Dirofilaria immitis; [3]) is reported as 0% and the “% Red” value (Dirofilaria immitis; [4]) is reported as 15%. For the same compound, the “% Red” value (Dirofilaria immitis; [5]) was 50%, the “% Red” value (Dirofilaria immitis; [6]) was 86% and the “% Red (percent reduction in percent of Di recovered compared to control)” value (Dirofilaria immitis; [7]) was 30%. The “% Red” value (Dirofilaria immitis; [8]) was 33%, the “Mean % Rec” value (Dirofilaria immitis; [9]) was 22% and the “Mean Survival” value (Dirofilaria immitis; [9]) was 11. The “% Rec” value (Dirofilaria immitis; [8]) was 26% and 24% (2×) and 16% (2×) and 20% and 22%, the Survival (Dirofilaria immitis; [8]) was 13 and 12 (2×) and 8 (2×) and 10 and 11 and the “% Red” value (Dirofilaria immitis; [10]) was 0%. The “Mean % Rec” value (Dirofilaria immitis; [11]) was 26%, the “Mean Survival” value (Dirofilaria immitis; [11]) was 13 and the “% Rec” value (Dirofilaria immitis; [10]) was 22% (2×) and 28% and 36% and 34% and 14%. For the same compound, the Survival (Dirofilaria immitis; [10]) was 11 (2×) and 14 and 18 and 17 and 7, the “Mean % Rec” value (Dirofilaria immitis; [12]) was 39% and the “Mean Survival” value (Dirofilaria immitis; [12]) was 19. For the same compound, the “Mean % Rec” value (Dirofilaria immitis; group mean, NSG mice, 50 Di L3, 2x (1 mg/kg) at Days 1 and 30, recovery Days 41 to 43) was 29%, the “Mean % Rec” value (Dirofilaria immitis; group mean, NSG mice, 50 Di L3, 3x (1 mg/kg) at Days 1, 15, and 30, recovery Days 41 to 43) was 17% and the “Mean % Rec” value (Dirofilaria immitis; [13]) was 2%. For the same compound, the “Mean Survival” value (Dirofilaria immitis; [13]) was 1, the “Mean % Rec” value (Dirofilaria immitis; [14]) was 28% and the “Mean Survival” value (Dirofilaria immitis; [14]) was 14. For the same compound, the “Mean Survival” value (Dirofilaria immitis; in vivo) was 14 and 9, the “% Rec” value (Dirofilaria immitis; [3]) was 36% and 28% (2×) and 46% (2×) and 42% and 44% and the Survival (Dirofilaria immitis; [3]) was 18 and 14 (2×) and 23 (2×) and 21 and 22. The “% Rec” value (Dirofilaria immitis; [4]) was 28% and 26% (3×) and 30% and 42% and 22%, the Survival (Dirofilaria immitis; [4]) was 14 and 13 (3×) and 15 and 21 and 11 and the “% Rec” value (Dirofilaria immitis; [5]) was 28% (2×) and 14% and 22% and 4% and 6% and 20%. For the same compound, the Survival (Dirofilaria immitis; [5]) was 14 (2×) and 7 and 11 and 2 and 3 and 10, the “% Rec (percent of the original 50 Di recovered)” value (Dirofilaria immitis; [6]) was 2% (3×) and 0% (3×) and 6% (2×) and the “Survival (number of Di recovered from the mouse)” value (Dirofilaria immitis; [6]) was 1 (3×) and 0 (3×) and 3 (2×). For the same compound, the “% Rec (percent of the original 50 Di recovered)” value (Dirofilaria immitis; [7]) was 24% and 30% (2×) and 32% and 28% and 26%, the “Survival (number of Di recovered from the mouse)” value (Dirofilaria immitis; [7]) was 12 and 15 (2×) and 16 and 14 and 13 and the “% Rec, Mean” value [1, 15] was 24%. The “Survival, Mean” value [1, 15] was 12, the “% Rec” value [1, 16] was 18% (2×) and 26% and 30% (2×) and 12% and 36% and the Survival [1, 16] was 9 (2×) and 13 and 15 (2×) and 6 and 18. The “% Red” value ([1]; NSG mice, 50 Di L3 Merial worms, 1 mg/kg on Days 1, 15, and 30, recovery Days 41 to 43) was 35%, the “% Red” value ([1]; NSG mice, 50 Di L3 Merial worms, high dose 5 mg/kg on Days 1, 15, and 30, recovery Days 41 to 43) was 0% and the “% Red” value ([1]; NSG mice, 50 Di L3 UC strain, High Dose 5 mg/kg on Days 1, 15, and 30, recovery Days 41 and 42) was 47%. The “Mean % Rec” value [1, 17] was 22%, the “Mean Survival” value [1, 17] was 11 and the “Mean % Rec” value [1, 18] was 51%. For the same compound, the “Mean Survival” value [1, 18] was 25, the “Mean % Rec” value [1, 19] was 19% and the “Mean Survival” value [1, 19] was 10. The “% Red” value ([1]; in vivo) was 37%, the “% Rec” value [1, 20] was 14% and 26% and 24% (2×) and 16% and 20% and 32% and 22% and the Survival [1, 20] was 7 and 13 and 12 (2×) and 8 and 10 and 16 and 11. For the same compound, the “% Rec” value [1, 21] was 52% and 68% and 48% (4×) and 56% and 36%, the Survival [1, 21] was 26 and 34 and 24 (4×) and 28 and 18 and the “% Rec” value [1, 22] was 20% (3×) and 22% (2×) and 18% and 14%. For the same compound, the Survival [1, 22] was 10 (3×) and 11 (2×) and 9 and 7, the “Adult S. stercoralis recovery counts (individual mice)” value [2, 23] was 0 (4×) and 1 and the “Adult S. stercoralis recovery counts, mean” value [2, 23] was 0.2. For the same compound, the “L1 S. stercoralis recovery counts (individual mice)” value [2, 23] was 0, the “L1 S. stercoralis recovery counts, mean” value [2, 23] was 0 and the “L3 S. stercoralis recovery counts (individual mice)” value [2, 23] was 5 (2×) and 8 and 0 and 1. The “L3 S. stercoralis recovery counts, mean” value [2, 23] was 4, the “Adult S. stercoralis recovery counts (individual mice)” value [2, 24] was 0 and the “Adult S. stercoralis recovery counts, mean” value [2, 24] was 0. For the same compound, the “L1 S. stercoralis recovery counts (individual mice)” value [2, 24] was 0, the “L1 S. stercoralis recovery counts, mean” value [2, 24] was 0 and the “L3 S. stercoralis recovery counts (individual mice)” value [2, 24] was 4 and 123 and 228 and 102 and 130 and 39 and 18. For the same compound, the “L3 S. stercoralis recovery counts, mean” value [2, 24] was 92 and the “Circulating L3” value ([2]; NSG mice, 5000 S. stercoralis L3 SC, with or without MPA, 2.5 mg/kg on days 1, 15, and 30) was “reduced the circulating L3”.
